IC50 data for 2 compounds are collected here from ChEMBL document CHEMBL1158119, “Hyrtiazepine, an azepino-indole-type alkaloid from the Red Sea marine sponge Hyrtios erectus” (J Nat Prod, 2006).

This test concerns the target T1, Phospholipase A2 alpha (Crotalus adamanteus, UniProt P00623).
T1 sequence (P00623 whole entry): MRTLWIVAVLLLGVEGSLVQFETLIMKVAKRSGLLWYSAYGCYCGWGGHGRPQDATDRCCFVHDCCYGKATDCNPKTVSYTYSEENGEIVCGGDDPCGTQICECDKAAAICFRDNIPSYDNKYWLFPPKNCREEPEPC
Description: Inhibition of Crotalus adamanteus venom phospholipase A2 by fluorometric assay.

pIC50: −log10 of the molar value.

On to `O=C(c1c[nH]c2ccc(O)cc12)c1nccc2c1[nH]c1ccc(O)cc12` [HYRTIOSULAWESINE], for which the negative logarithm of the IC50 (pIC50) (usually the negative decadic logarithm of the IC50, by convention in mol/L) is 4.85.
The figure for `CC1=C(CC/C(C)=C/CCC2=CC[C@H](C3=CC(=O)O[C@H]3O)O[C@H]2O)C(C)(C)CCC1` [MANOALIDE] is 6.40.
